Source: US7371841B2, “Methods of modulating cold sensory perception” (Regents of the University of California, priority 2002, dated 2008)
Like-named read-outs stand apart in the source and are kept apart here.

Key:
[1] = molecular target: T1, CMR1 (Rattus norvegicus, UniProt Q8R455, N449H); assay: Two-electrode voltage-clamp of Xenopus oocytes expressing the cloned cold/menthol receptor; assay type: cell-based; set-up: open reading frame of 3312 bp that is predicted to encode a protein of 1104 amino acids; expressed in transfected cells; host or cells: Xenopus laevis oocytes (cRNA injection); details: for EC50: room temperature, voltage clamp at -60 mV; for electrophysiological response of receptor-expressing oocytes: menthone, camphor, cyclohexanol applied near limits of solubility (>500 μM)
T1 sequence (Q8R455 whole entry N449H): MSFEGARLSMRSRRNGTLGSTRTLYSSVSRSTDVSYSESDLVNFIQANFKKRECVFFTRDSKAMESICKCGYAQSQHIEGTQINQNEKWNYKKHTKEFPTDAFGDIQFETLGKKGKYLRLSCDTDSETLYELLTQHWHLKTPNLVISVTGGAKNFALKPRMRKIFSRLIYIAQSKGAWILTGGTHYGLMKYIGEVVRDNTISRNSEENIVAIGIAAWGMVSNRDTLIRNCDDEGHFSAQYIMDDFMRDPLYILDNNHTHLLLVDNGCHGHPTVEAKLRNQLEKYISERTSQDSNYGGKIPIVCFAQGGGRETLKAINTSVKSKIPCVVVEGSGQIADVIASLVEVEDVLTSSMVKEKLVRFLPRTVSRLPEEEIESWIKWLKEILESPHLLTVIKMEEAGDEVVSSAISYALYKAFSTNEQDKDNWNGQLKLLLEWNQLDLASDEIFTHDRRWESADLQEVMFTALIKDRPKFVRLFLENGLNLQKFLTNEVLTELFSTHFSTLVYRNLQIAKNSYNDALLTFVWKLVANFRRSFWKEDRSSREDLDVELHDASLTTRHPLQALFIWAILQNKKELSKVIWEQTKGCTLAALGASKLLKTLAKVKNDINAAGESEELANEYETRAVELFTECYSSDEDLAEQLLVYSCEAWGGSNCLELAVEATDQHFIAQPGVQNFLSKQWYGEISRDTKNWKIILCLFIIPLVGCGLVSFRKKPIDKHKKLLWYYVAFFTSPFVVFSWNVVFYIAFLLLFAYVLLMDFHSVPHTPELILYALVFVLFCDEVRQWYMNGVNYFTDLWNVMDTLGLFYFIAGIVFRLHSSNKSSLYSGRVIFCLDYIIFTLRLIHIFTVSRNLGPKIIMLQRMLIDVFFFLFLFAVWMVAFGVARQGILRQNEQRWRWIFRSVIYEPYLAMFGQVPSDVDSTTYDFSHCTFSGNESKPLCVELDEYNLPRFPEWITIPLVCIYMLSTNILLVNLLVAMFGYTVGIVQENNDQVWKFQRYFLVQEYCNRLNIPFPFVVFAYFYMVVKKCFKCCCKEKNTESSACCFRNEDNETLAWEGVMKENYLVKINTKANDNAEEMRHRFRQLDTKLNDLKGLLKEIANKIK
Procedure: cRNA transcripts were synthesized and injected into Xenopus laevis oocytes as described (Brake, supra). Two-electrode voltage-clamp recordings were performed 2-7 days post-injection. Dose-response curves for cooling compounds were performed at room temperature (22-24° C.). AG-3-5 (icilin) was provided by Dr. E. Wei, University of California, Berkeley. Temperature ramps were generated by heating (˜35° C.) or cooling (˜4° C.) the perfusate in a Harvard coil and monitoring temperature changes with a thermister placed near the oocyte.

[2] = test system: trigeminal neurons; assay: Calcium imaging (Fura-2) of dissociated trigeminal neurons; assay type: cell-based, rat; details: capsaicin 1 μM
Procedure: Trigeminal ganglia were removed from newborn S/D rats, placed in ice-cold culture medium (MEM Eagle's with Earle's BSS supplemented with 10% horse serum, vitamins, penicillin/streptomycin and L-glutamine), cleaned of connective tissue/blood vessels and diced into 4-5 pieces. Ganglia were then transferred to 0.125% collagenase P (Boehringer) solution in CMF Hank's, shaken gently at 37° C. for 20 (P0 animals) to 30 min (P4 animals), pelleted, and resuspended in 0.05% STV at 37° C. for 2 min. Culture medium was added to inhibit enzymatic activity and ganglia were triturated gently with a fire-polished Pasteur pipette. Neurons were enriched by density gradient centrifugation as described (see, e.g., Eckert et al., J. Neurosci. Methods 77:183-90, 1997). […]

[3] = test system: trigeminal neurons; assay: Whole-cell patch-clamp recordings of dissociated trigeminal neurons; assay type: cell-based, rat; details: for membrane currents elicited in trigeminal neurons: compared to an equivalent dose of menthol
Procedure: Trigeminal ganglia were removed from newborn S/D rats, placed in ice-cold culture medium (MEM Eagle's with Earle's BSS supplemented with 10% horse serum, vitamins, penicillin/streptomycin and L-glutamine), cleaned of connective tissue/blood vessels and diced into 4-5 pieces. Ganglia were then transferred to 0.125% collagenase P (Boehringer) solution in CMF Hank's, shaken gently at 37° C. for 20 (P0 animals) to 30 min (P4 animals), pelleted, and resuspended in 0.05% STV at 37° C. for 2 min. Culture medium was added to inhibit enzymatic activity and ganglia were triturated gently with a fire-polished Pasteur pipette. Neurons were enriched by density gradient centrifugation as described (see, e.g., Eckert et al., J. Neurosci. Methods 77:183-90, 1997). Cells were resuspended in complete culture medium (MEM Eagle's/Earle's BSS with 10% horse serum, vitamins, penicillin/streptomycin, L-glutamine and 100 ng/ml NGF 7S (Invitrogen) and plated onto glass coverslips coated with PLO (1 mg/ml, Sigma) and laminin (5 μg/ml, Invitrogen). Cultures were maintained at 37° C. in 5% CO2 and examined 1-2 days after plating. Ca^2+ microfluorimetry was carried out as described (Caterina et al., Nature 389:816-24 (1997)). For cell selection prior to patch-clamp analysis, CaCl2 and pluronic acid were omitted from the loading buffer (nominally Ca^2+-free CIB). Cells in the recording chamber were perfused by gravity using the VC-6 valve control system (Warner Inst.).
Trigeminal neurons responding to […] menthol with an increase in intracellular Ca2+ were selected for patch-clamp recordings. HEK293 cells were cultured in DMEM with 10% fetal bovine serum and co-transfected (Lipofectamine 2000, Invitrogen) with 1 μg CMR1 plasmid and 0.1 μg enhanced green fluorescence reporter plasmid to identify transfected cells. Cells were plated onto PLO-coated coverslips the next day and examined two days after transfection. Gigaseals were formed with pipettes (Garner Glass type 7052, ID 1.1, OD 1.5) having a resistance of 3-5 MΩ in standard pipette solution. Whole-cell voltage clamp was performed at a holding potential of −60 mV with a 200 ms voltage ramp from −120 mV to +80 mV at 3.6 Hz. Data were acquired using Pulse-Pulsefit (HEKA GmbH) software. Recordings were filtered at 5 kHz and sampled at 20 kHz. Pipette solution for neuronal experiments contained (in mM) 140 CsCl, 1 EGTA, 0.6 MgCl2, 10 HEPES, pH 7.4 (adjusted with CsOH). Standard Ca^2+-free bath solution for whole-cell recordings contained (in mM) 140 NaCl, 4 KCl, 2 MgCl2, 100 nM TTX (Sigma), 10 TRIS, pH 7.4 (adjusted with HCl) with or without 100 nM dendrotoxin I (Sigma). For ion replacement experiments, pipette solution contained (in mM) 140 KCl, 5 CsCl, 1 EGTA, 0.6 MgCl2, 1 4-aminopyridine, 10 HEPES, pH 7.4 (adjusted with KOH). Bath solution contained (in mM) 140 NaCl, 4 KCl, 2 MgCl2, 100 nM TTX, 100 nM dendrotoxin I, 100 nM apamine (Sigma), 100 nM carybdotoxin (Sigma), 1 μω-conotoxin MVIIC, 1 μM GVIA (Latoxan), 10 TRIS, pH 7.4 (adjusted with HCl). For monovalent cation permeability experiments perfusate contained (in mM) 140 NaCl (or 140 KCl or 140 NMDG), 100 nM TTX, 1 μM nitrendipine (Sigma), 10 HEPES, 10 glucose, pH 7.4 (adjusted with NaOH, KOH or HCl, respectively). For divalent cation permeability experiments perfusate contained (in mM) 125 NMDG, 10 CaCl2, 100 nM TTX, 1 μM nitrendipine, 10 HEPES, 10 glucose, pH 7.4 (adjusted with HCl). […]

[4] = molecular target: T1, CMR1; assay: Whole-cell patch-clamp of CMR1-transfected HEK293 cells; assay type: cell-based; set-up: open reading frame of 3312 bp that is predicted to encode a protein of 1104 amino acids; expressed in transfected cells
Procedure: Trigeminal neurons responding to […] menthol with an increase in intracellular Ca2+ were selected for patch-clamp recordings. HEK293 cells were cultured in DMEM with 10% fetal bovine serum and co-transfected (Lipofectamine 2000, Invitrogen) with 1 μg CMR1 plasmid and 0.1 μg enhanced green fluorescence reporter plasmid to identify transfected cells. Cells were plated onto PLO-coated coverslips the next day and examined two days after transfection. Gigaseals were formed with pipettes (Garner Glass type 7052, ID 1.1, OD 1.5) having a resistance of 3-5 MΩ in standard pipette solution. Whole-cell voltage clamp was performed at a holding potential of −60 mV with a 200 ms voltage ramp from −120 mV to +80 mV at 3.6 Hz. Data were acquired using Pulse-Pulsefit (HEKA GmbH) software. Recordings were filtered at 5 kHz and sampled at 20 kHz. Pipette solution for neuronal experiments contained (in mM) 140 CsCl, 1 EGTA, 0.6 MgCl2, 10 HEPES, pH 7.4 (adjusted with CsOH). Standard Ca^2+-free bath solution for whole-cell recordings contained (in mM) 140 NaCl, 4 KCl, 2 MgCl2, 100 nM TTX (Sigma), 10 TRIS, pH 7.4 (adjusted with HCl) with or without 100 nM dendrotoxin I (Sigma). For ion replacement experiments, pipette solution contained (in mM) 140 KCl, 5 CsCl, 1 EGTA, 0.6 MgCl2, 1 4-aminopyridine, 10 HEPES, pH 7.4 (adjusted with KOH). Bath solution contained (in mM) 140 NaCl, 4 KCl, 2 MgCl2, 100 nM TTX, 100 nM dendrotoxin I, 100 nM apamine (Sigma), 100 nM carybdotoxin (Sigma), 1 μω-conotoxin MVIIC, 1 μM GVIA (Latoxan), 10 TRIS, pH 7.4 (adjusted with HCl). For monovalent cation permeability experiments perfusate contained (in mM) 140 NaCl (or 140 KCl or 140 NMDG), 100 nM TTX, 1 μM nitrendipine (Sigma), 10 HEPES, 10 glucose, pH 7.4 (adjusted with NaOH, KOH or HCl, respectively). For divalent cation permeability experiments perfusate contained (in mM) 125 NMDG, 10 CaCl2, 100 nM TTX, 1 μM nitrendipine, 10 HEPES, 10 glucose, pH 7.4 (adjusted with HCl). […] Bath solution for on-cell single channel experiments contained (in mM): 150 NaCl, 1 MgCl2, 10 TRIS. Pipette solution for on-cell single channel experiments contained (in mM): 150 NaCl, 1 MgCl2, 0.1 EGTA, 10 TRIS and 5 or 25 μM menthol. Recordings were performed at 22° C. unless noted otherwise. Temperature ramps were generated by cooling or heating the perfusate in a jacketed coil (Harvard Inst.) connected to a thermostat. Temperature in the proximity of the patched cell was measured using a miniature thermocouple (type MT-29/2, Physitemp) and sampled using an ITC-18 A/D board (Instrutech) and Pulse software. Permeability ratios for monovalent cations to Na (PX/PNa) were calculated according to: PX/PNa=exp(ΔErev(Na-X)F/RT), where ΔErev(Na-X) equals the reversal potential change, F the Faraday's constant, R the universal gas constant and T the absolute temperature. For measurements of Ca^2+ permeability PCa/PNa was calculated according to Lewis, C. A. J. Physiol. 286:417-45, 1979, (equation A6).

[5] = normalized to 500 μM menthol, read-out: EC50 of evoked membrane currents

## CC12CCC(CC1)C(C)(C)O2 [Eucalyptol]
[1]; read-out: potency (EC50) of evoked membrane currents
  EC50: 3400 ± 400 µM

## CC12CCC(CC1=O)C2(C)C (stereo not shown) [camphor]
[1]
  electrophysiological response of receptor-expressing oocytes: little or no effect

## COc1cc(CNC(=O)CCCC/C=C/C(C)C)ccc1O [capsaicin]
[2]
  fraction of menthol/cold-sensitive neurons also activated: 54.5±6.1%
[1]
  electrophysiological response of receptor-expressing oocytes: did not elicit responses

## OC1CCCCC1 [cyclohexanol]
[3]
  membrane currents elicited in trigeminal neurons: no effect

## O=C1NC(c2cccc([N+](=O)[O-])c2)=CCN1c1ccccc1O [icilin]
[4]; 20 s after application, n=3
  desensitization of evoked currents relative to peak currents: 78.8±17%
[4]; no extracellular calcium
  activity in the absence of extracellular calcium: essentially inactive
[1]
  efficacy compared to menthol: ~2.5 fold
  electrophysiological response of receptor-expressing oocytes: Robust responses
[1]; ratio of EC50 values
  potency relative to menthol: ~200 fold
[1]; [5]
  EC50: 0.36 ± 0.03 µM

## CC1CCC(C(C)C)C(O)C1 (stereo not shown) [menthol]
[4]; 2.5 mM extracellular Ca2+, n=3
  desensitization: decrease in peak current between first and second application: 53.9±1.7%
[4]; nominally calcium-free bath solution, n=3
  desensitization: decrease in peak current between first and second application: 9.1±7%
[4]; sub-activating dose 10 μM menthol
  effect on cold-evoked currents: markedly potentiated
[3]; 10 μM menthol, threshold without menthol 27.1±0.5° C., n=4
  thermal threshold of cold-evoked currents in the presence of the compound: 29.6±0.3 °C
[3]; Rattus norvegicus, Neuron, room temperature, Vhold=-60 mV, currents normalized to 1 mM menthol, read-out: half-maximal effective concentration (EC50) of evoked inward currents
  EC50: 80 ± 2.4 µM
[3]; fit of concentration-response data to the Hill equation
  Hill coefficient (η): 2.2
[1]
  electrophysiological response of receptor-expressing oocytes: Robust responses
[1]; [5]
  EC50: 66.7 ± 3.3 µM
[1]; sub-activating menthol (20 mM printed), without menthol 8.2±0.3° C., n=7
  saturation temperature of cold-activated currents in the presence of the compound: 15.6±0.4 °C
[1]; sub-activating menthol (20 mM printed), without menthol 25.8±0.4° C., n=7
  threshold temperature of cold-activated currents in the presence of the compound: 29.7±0.3 °C

## CC(C)[C@@H]1CC[C@@H](C)CC1=O [menthone]
[3]
  membrane currents elicited in trigeminal neurons: very small currents
